Read-outs that look alike come from different tables or passages of the source.
Assay: In vitro transdermal delivery of the drug from the diffusion matrix through human cadaver skin epidermis into Ringer solution
From the text: Es wurde von uns eine Diffusionsmatrix "in vitro" untersucht, die auf der Grundlage der erfindungsgemäßen Zusammensetzung hergestellt wurde.
So wird, beispielsweise, auf eine Adhäsionsschicht einer Diffusionsmatrix mit runder Form und einem Radius von 1 cm (Fläche 3,14 cm²), die auf der Grundlage einer Zusammensetzung hergestellt wird, die 26,7 g Propranolol, 40 g Polyäthylenglykol mit einer Molekularmasse von 400 und 100 g Polyvinylpyrrolidon enthält, ein Probestück aus der Epidermis der Leichenhaut eines Menschen (mit der Außenoberfläche der Epidermis an die Diffusionsmatrix) aufgeklebt. Das Laminat der Diffusionsmatrix mit der Hautepidermis taucht man in die in einem Magnetrührer zu vermischende Ringer-Lösung ein. In den vorgegebenen Zeitabständen nimmt man aus der Lösung Proben ab, in denen man den Gehalt an Propranolol mit Hilfe der Spektrofluorometrie ermittelt, wobei die vorher aufgebauten Eichkurven genutzt werden.

Compound: O=[N+]([O-])OCC(CO[N+](=O)[O-])O[N+](=O)[O-] [Nitroglyzerin]
- Geschwindigkeit des transdermalen Eintritts des Arzneistoffes aus der Matrix (drug contained in the named matrix, through cadaver skin): 39 µg/cm².h

Compound: CC(C)NCC(O)COc1cccc2ccccc12 (stereo not drawn) [Propranolol]
- Geschwindigkeit der transdermalen Zuführung aus einer Matrix, die einen Füllstoff enthält: 55 µg/cm².h
- Geschwindigkeit des transdermalen Eintritts des Arzneistoffes aus der Matrix: 47 µg/cm².h

Source: patent publication EP0340307A1, “COMPOSITION OF POLYMER DIFFUSION MATRIX FOR TRANSDERMALLY INTRODUCING PHARMACEUTICAL SUBSTANCES” (priority 1987, dated 1989)
